Patent publication US10265270B2, “Solid dispersion of decoquinate, a preparation process and its application” (GUANGZHOU CAS LAMVAC BIOTECH CO., LTD., priority 2015, dated 2019)

What was measured:
[1] = In vitro dissolution test (paddle method); format: physicochemical; conditions: cumulative in vitro dissolution rate, 0.1 N HCl and 10 mM SDS, 37° C., 50 rpm
Experimental: The dissolution medium was a solution of 0.1 N hydrochloric acid (HCl) and 10 mM sodium dodecyl sulfonate (SDS). The instrument used in the test was RC-6 dissolution rate apparatus (Tianjin). The instrument parameters were set to 37° C., 50 rpm, the paddle method. To each dissolution vessel was added 900 ml of dissolution medium followed by initiating the instrument. When the temperature of the medium in each vessel reached 37° C., corresponding testing sample was added. One ml of sample solution was taken out at time points of 10, 20, 40, 60, 90, 120, 180, 240 and 270 minute respectively, and then 1 ml of dissolution medium was added back to supplement the vessel volume. The sample solutions collected from dissolution testing was passed through a 0.45 μm filter and the filtrate was analyzed by HPLC (Agilent, 1260) to determine the amount of DQ. An isocratic mobile phase of 80% ethanol and 20% water and a wavelength 260 nm were chosen for HPLC analysis.

[2] = Thermogravimetric analysis; format: physicochemical; conditions: at 250.5° C., heating rate 10° C./min, nitrogen
Experimental: The pure DQ was weighed for thermogravimetric analysis. The instruments used in the analysis included a balance with 0.0001 accuracy (Sartorius, available from Sartorius Scientific Instruments, Model: BSA124S) and a thermogravimetric analyzer (NETZSCH, Model: TG209F1, Germany).
Detection conditions, nitrogen: 20 mL/min, scanning procedures: temperature was increased to 350° C. from room temperature, heating rate: 10° C./min; detection was performed based on the General Rules for Thermal Analysis JY/T014-1996.

Plasmodium berghei ANKA = assay: In vivo efficacy experiment, mice inoculated with sporozoites; conditions: NIH female mice, after 21 days; DQ 3, 10, 30 mg/kg; primaquine 30 mg/kg
Experimental: The NIH female mice used for the experiment were raised at least for 7 days after arrival. At the start of experiment, the mice were 7 weeks old. Only one mouse was housed in each cage maintained in a room with a temperature range of 18 to 26° C., a relative humidity of 34% to 68% in a 12/12 h light-dark cycle. Food and water were provided ad libitum during quarantine and throughout the study. This experiment was carried out in strict accordance with the relevant animal testing regulations (Guide for the Care and Use of Laboratory Animals, NRC publication, 2011 edition). The DQ suspension used in the animal experiment was from the product of Example 1, prepared with saline and subjected to ultrasonic treatment for 5 minutes. […] The detection of Plasmodium parasitemia was performed as follows: conventional method was used to count red blood cells per mm^3 of blood in that a thin film of blood was prepared and stained with 3% Giemsa for 20 minutes; and then the number of infected red blood cells per 1000 red blood cells was counted under oil microscope to obtain erythrocyte infected rate (EIR, %o). Survival rate was calculated on day 22 post-infection.
The dosage of product of Example 1 was calculated based on decoquinate mg/kg body weight, the negative control group used was saline, and the positive control group used 30 mg primaquine per kg body weight. […]

SMILES | Dissolved at 60 min ([1]; 60 min) | Dissolved at 90 min ([1]; 90 min) | amount of DQ remaining by weight in thermogravimetric analysis [2] | animal survival (Plasmodium berghei ANKA)
CCCCCCCCCCOc1cc2c(O)c(C(=O)OCC)cnc2cc1OCC [Pure DQ, Decoquinate] | 6.87 | 14.60 | 99 % by weight | 
COc1cc(NC(C)CCCN)c2ncccc2c1 (stereo not shown) [primaquine] |  |  |  | all animals survived
